Measurements as given in patent publication US20080275058A1, “N-Substituted-1H-Quinoline-2,4-Diones, Preparation Method Thereof, And Pharmaceutical Composition Containing The Same” (KOREA RESEARCH INSTITUTE OF CHEMICAL TECHNOLOGY, priority 2005, published 2008).
Where two headings read alike, the source gives them in different places.

Columns and labels:
5-HT1a = target: T1, 5-HT1a (Homo sapiens, UniProt P08908); test: Radioligand binding, 5-HT1a ([3H]8-OH-DPAT); details: Table 4; [3H]8-OH-DPAT 0.5 nM; read-out: Binding affinity, IC50 (nM) 5-HT1a
T1 construct: purchased Euroscreen/BioSignal Packard Inc
T1 sequence (P08908 1-422): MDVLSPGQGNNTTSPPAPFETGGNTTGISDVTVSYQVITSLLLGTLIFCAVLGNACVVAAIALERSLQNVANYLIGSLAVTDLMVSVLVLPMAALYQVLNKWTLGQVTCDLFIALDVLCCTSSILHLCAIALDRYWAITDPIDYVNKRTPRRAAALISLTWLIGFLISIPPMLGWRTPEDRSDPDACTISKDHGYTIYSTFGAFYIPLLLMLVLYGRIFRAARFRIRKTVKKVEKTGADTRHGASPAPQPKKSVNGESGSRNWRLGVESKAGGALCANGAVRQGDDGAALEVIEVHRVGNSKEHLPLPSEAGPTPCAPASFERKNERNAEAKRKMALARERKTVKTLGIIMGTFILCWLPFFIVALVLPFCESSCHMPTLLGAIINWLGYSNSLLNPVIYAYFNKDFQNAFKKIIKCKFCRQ
Outline: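 Membranes bearing the receptor, bought in; radioligand displacement run per supplier protocol.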

hD2L = target: T2, hD2L (Homo sapiens, UniProt P14416); test: Radioligand binding, dopamine D2 ([3H]spiperone); details: Table 4; [3H]spiperone 1 nM; read-out: Binding affinity, IC50 (nM) D2
T2 construct: purchased BioSignal Packard Inc., Montreal, Canada
T2 sequence (P14416 whole entry): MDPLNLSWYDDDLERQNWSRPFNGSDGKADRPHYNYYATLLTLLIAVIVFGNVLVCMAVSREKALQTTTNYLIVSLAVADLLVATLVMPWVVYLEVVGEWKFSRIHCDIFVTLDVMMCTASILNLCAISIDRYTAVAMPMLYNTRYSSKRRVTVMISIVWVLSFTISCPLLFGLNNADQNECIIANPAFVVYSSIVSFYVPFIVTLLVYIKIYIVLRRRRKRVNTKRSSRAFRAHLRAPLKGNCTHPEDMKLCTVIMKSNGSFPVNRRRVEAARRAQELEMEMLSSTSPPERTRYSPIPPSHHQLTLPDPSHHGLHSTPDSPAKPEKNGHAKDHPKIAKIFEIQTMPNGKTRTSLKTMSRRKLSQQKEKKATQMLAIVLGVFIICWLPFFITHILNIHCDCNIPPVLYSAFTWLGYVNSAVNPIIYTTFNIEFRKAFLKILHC
Outline: (§1)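 IC50 values come from nonlinear fits of three displacement experiments, each using 7-8 test concentrations in duplicate. D2L and D3 membranes were labelled with 1 nM [3H]spiperone, and D4.2 with 0.06 nM [3H]YM-09151-2. All assays used pH 7.4 Tris buffers, with the D3 buffer adding 120 mM NaCl, KCl and CaCl2.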

5-HT7 = target: T3, 5-HT7 (Homo sapiens, UniProt P34969); test: Radioligand binding, 5-HT7 ([3H]LSD); details: Table 4; [3H]LSD 3 nM; read-out: Binding affinity, IC50 (nM) 5-HT7
T3 construct: purchased Euroscreen/BioSignal Packard Inc
T3 sequence (P34969 whole entry): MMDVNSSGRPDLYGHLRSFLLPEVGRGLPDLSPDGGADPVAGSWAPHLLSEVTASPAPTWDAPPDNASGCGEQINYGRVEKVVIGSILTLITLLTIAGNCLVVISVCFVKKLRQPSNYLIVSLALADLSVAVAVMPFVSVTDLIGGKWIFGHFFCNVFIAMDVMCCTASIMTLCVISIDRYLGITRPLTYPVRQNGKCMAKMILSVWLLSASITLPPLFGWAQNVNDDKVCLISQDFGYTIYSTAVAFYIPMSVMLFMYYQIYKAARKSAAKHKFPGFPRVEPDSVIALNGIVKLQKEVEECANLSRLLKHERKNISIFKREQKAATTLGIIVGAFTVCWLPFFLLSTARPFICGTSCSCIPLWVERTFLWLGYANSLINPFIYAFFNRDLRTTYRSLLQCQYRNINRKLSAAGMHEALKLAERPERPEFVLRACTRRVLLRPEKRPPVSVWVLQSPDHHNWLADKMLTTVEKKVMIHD

D1 = D1 (Homo sapiens, UniProt P21728); test: Radioligand binding, dopamine D1; details: Table 4; read-out: Binding affinity, IC50 (nM) D1
D1, sequence (P21728 whole entry): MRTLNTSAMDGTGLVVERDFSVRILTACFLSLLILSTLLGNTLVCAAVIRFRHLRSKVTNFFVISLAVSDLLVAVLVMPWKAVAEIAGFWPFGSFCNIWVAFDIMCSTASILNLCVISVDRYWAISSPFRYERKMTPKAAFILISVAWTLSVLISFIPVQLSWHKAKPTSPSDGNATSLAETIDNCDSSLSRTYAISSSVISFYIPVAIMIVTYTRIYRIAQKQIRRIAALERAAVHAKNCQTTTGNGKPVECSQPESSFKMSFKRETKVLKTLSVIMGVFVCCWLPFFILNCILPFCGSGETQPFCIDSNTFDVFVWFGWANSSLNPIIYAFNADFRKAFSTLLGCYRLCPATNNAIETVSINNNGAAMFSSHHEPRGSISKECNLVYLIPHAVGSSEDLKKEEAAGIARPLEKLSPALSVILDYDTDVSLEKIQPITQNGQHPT

5-HT2c = target: T4, 5-HT2c (Homo sapiens, UniProt P28335); test: Radioligand binding, 5-HT2c ([3H]Mesulergine); details: Table 4; [3H]Mesulergine 1 nM; read-out: Binding affinity, IC50 (nM) 5-HT2c
T4 construct: purchased Euroscreen/BioSignal Packard Inc
T4 sequence (P28335 33-458): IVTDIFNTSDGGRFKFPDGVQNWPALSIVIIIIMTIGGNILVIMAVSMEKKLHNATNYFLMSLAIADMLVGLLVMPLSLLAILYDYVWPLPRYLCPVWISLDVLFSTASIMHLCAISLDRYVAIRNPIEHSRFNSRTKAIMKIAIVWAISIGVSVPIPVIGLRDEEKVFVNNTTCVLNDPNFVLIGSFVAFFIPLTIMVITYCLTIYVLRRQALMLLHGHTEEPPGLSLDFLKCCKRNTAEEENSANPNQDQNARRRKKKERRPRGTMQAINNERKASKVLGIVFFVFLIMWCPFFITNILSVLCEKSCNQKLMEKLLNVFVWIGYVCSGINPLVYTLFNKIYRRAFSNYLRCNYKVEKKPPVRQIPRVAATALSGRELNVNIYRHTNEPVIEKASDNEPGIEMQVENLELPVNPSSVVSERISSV

hD3 = target: T5, hD3 (Homo sapiens, UniProt P35462); test: Radioligand binding, dopamine D3 ([3H]spiperone); details: Table 4; [3H]spiperone 1 nM; read-out: Binding affinity, IC50 (nM) D3
T5 construct: purchased BioSignal Packard Inc., Montreal, Canada
T5 sequence (P35462 whole entry): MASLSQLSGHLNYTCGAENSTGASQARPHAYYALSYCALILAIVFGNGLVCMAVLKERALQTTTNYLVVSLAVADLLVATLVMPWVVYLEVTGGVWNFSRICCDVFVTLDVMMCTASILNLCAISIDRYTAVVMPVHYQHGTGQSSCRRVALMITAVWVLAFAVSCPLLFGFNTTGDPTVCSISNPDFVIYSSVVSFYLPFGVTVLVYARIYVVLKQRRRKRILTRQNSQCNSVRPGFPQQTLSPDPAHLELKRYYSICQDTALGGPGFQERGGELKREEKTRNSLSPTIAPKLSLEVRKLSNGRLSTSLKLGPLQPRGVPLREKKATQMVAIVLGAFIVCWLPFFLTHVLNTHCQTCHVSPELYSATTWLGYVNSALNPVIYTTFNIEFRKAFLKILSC
Outline: as §1

5-HT2a = target: T6, 5-HT2a (Homo sapiens, UniProt P28223); test: Radioligand binding, 5-HT2a ([3H]Ketanserin); details: Table 4; [3H]Ketanserin 1 nM; read-out: Binding affinity, IC50 (nM) 5-HT2a
T6 construct: purchased Euroscreen/BioSignal Packard Inc
T6 sequence (P28223 whole entry): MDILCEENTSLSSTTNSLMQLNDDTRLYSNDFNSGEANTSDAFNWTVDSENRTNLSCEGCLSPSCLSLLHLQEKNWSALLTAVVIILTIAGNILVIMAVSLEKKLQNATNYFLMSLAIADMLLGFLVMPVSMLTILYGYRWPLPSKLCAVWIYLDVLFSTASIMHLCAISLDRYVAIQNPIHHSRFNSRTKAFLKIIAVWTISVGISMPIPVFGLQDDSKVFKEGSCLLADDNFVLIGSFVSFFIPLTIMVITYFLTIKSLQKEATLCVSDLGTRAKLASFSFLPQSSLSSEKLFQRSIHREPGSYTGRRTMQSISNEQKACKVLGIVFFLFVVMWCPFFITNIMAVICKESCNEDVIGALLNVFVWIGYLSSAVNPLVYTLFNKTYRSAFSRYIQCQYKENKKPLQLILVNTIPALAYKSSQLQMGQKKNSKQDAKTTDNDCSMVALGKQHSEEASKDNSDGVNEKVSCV

hD4.2 receptor = target: T7, hD4.2 receptor (Homo sapiens, UniProt P21917, DEL265-296); test: Radioligand binding, dopamine D4 ([3H]YM-09151-2); details: Table 4; [3H]YM-09151-2 0.06 nM; read-out: Binding affinity, IC50 (nM) D4
T7 construct: purchased BioSignal Packard Inc., Montreal, Canada
T7 sequence (P21917 with tags, fused parts or gaps DEL265-296): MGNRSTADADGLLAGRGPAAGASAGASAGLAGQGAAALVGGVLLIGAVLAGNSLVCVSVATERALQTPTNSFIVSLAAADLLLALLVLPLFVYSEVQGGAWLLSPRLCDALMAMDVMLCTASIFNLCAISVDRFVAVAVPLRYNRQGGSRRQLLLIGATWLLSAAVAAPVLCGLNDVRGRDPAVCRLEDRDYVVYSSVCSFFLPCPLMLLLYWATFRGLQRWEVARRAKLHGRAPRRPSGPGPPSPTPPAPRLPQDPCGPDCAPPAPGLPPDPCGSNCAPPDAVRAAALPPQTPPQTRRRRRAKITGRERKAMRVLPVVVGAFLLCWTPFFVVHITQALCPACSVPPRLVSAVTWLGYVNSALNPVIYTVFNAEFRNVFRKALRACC
Outline: as §1

[1] = target: T8, Human serotonin 5-HT6 receptor (Homo sapiens, UniProt P50406); test: [3H]LSD binding assay on cloned 5-HT6 receptor membranes; details: for binding affinity at 5-HT6 receptor labeled by [3H]LSD, in words: comment on Table 2
T8 construct: made in house; host or cells: insect Sf21 cells (baculovirus vector BacPAK8)
T8 sequence (P50406 whole entry): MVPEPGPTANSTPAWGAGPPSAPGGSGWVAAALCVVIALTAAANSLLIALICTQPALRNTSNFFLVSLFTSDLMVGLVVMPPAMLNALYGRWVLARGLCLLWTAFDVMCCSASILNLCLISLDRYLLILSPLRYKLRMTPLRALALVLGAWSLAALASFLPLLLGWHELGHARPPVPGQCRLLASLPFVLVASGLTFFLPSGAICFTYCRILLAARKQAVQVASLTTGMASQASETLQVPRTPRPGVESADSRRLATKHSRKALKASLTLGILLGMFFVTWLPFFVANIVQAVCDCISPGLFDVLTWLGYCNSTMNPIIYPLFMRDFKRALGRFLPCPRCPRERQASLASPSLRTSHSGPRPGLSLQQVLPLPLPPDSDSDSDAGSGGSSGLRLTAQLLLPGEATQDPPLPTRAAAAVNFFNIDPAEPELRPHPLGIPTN

Rotarod deficit in mice = format: in vivo, mouse; details: mouse, in vivo, po, unit printed as image, read-out: TD50 (median neurotoxic dose)
Method: (§2) The mouse was placed on a 1 inch diameter knurled plastic rod rotating at 6 rpm (Ugo-Basile, Milano, Italy), and the rotarod deficit (%) was obtained by counting the number of animals fallen from the rotating rod within 1 min [Dunham et al., 1957] at 60, 90 and 120 min after the injection of the compound according to the invention(200, 300 or 400 ? ). […] The compounds of the examples were suspended in 3% Tween 80 solution, and were administered (p.o.) 60 min before the testing.

mice = test: Rotarod deficit in mice; format: in vivo, mouse
Method: as §2

[2] = Table 2, 1.87 nM [3H]LSD, 37 C, 60 min, read-out: IC50 (nM), binding affinity to the 5-HT6 receptor
[3] = Table 4, read-out: Binding affinity, IC50 (nM) 5-HT6

CN1CCN(c2cc(Cl)cc3c2C(=O)C(C)(c2ccc(OCc4ccccc4)c(Br)c2)C(=O)N3Cc2ccccc2)CC1 (centres unmarked) [Example 12, 1-Benzyl-3-(4-benzyloxy-3-bromo-phenyl)-7-chloro-3-methyl-5-(4-methyl-piperazin-1-yl)-1H-quinoline-2,4-dione]
IC50 (5-HT1a): 2520 nM | IC50 (hD2L): 6450 nM | IC50 (5-HT7): 136 nM | IC50 (D1): 1240 nM | IC50 (5-HT2c): 1290 nM | melting point: 95 to 97 °C | IC50 (hD3): 153 nM | IC50 (5-HT2a): 95 nM | IC50 (hD4.2 receptor): > 10000 nM | IC50 [1, 2]: 9.2 nM | IC50 [1, 3]: 9.2 nM | TD50 at 120 min (Rotarod deficit in mice): > 400 mg/kg | Rotarod deficit (%) (mice; 200 p.o. (dose unit not given)): 0% | Rotarod deficit (%) (mice; 300 p.o. (dose unit not given)): 0% | Rotarod deficit (%) (mice; 400 p.o. (dose unit not given)): 0%

COc1ccc(C2(C)C(=O)c3c(N4CCN(C)CC4)cc(Cl)cc3N(Cc3ccccc3)C2=O)cc1 (centres unmarked) [Example 1, 1-Benzyl-7-chloro-3-(4-methoxy-phenyl)-3-methyl-5-(4-methyl-piperazin-1yl)-1H-quinoline-2,4-dione]
IC50 (5-HT1a): 4410 nM | IC50 (hD2L): > 10000 nM | IC50 (5-HT7): 7490 nM | IC50 (D1): 174 nM | IC50 (5-HT2c): > 10000 nM | melting point: 66 to 67 °C | IC50 (hD3): 2280 nM | IC50 (5-HT2a): 1120 nM | IC50 (hD4.2 receptor): 8020 nM | IC50 [1, 2]: 1.9 nM | IC50 [1, 3]: 1.9 nM | binding affinity at 5-HT6 receptor labeled by [3H]LSD, in words [1]: significant affinities | TD50 at 120 min (Rotarod deficit in mice): > 400 mg/kg | Rotarod deficit (%) (mice; 200 p.o. (dose unit not given)): 0% | Rotarod deficit (%) (mice; 300 p.o. (dose unit not given)): 0% | Rotarod deficit (%) (mice; 400 p.o. (dose unit not given)): 0%

CN1CCN(c2cc(Cl)cc3c2C(=O)C(C)(c2ccc(O)cc2)C(=O)N3Cc2ccccc2)CC1 (centres unmarked) [Example 2, 1-Benzyl-7-chloro-3-(4-hydroxy-phenyl)-3-methyl-5-(4-methyl-piperazin-1-yl)-1H-quinoline-2,4-dione]
IC50 (5-HT1a): > 10000 nM | IC50 (hD2L): > 10000 nM | IC50 (5-HT7): 920 nM | IC50 (D1): 4970 nM | IC50 (5-HT2c): 487 nM | melting point: 258 to 259 °C | IC50 (hD3): 589 nM | IC50 (5-HT2a): 2620 nM | IC50 (hD4.2 receptor): > 10000 nM | IC50 [1, 2]: 2.5 nM | IC50 [1, 3]: 2.5 nM | TD50 at 120 min (Rotarod deficit in mice): > 400 mg/kg | Rotarod deficit (%) (mice; 200 p.o. (dose unit not given)): 0% | Rotarod deficit (%) (mice; 300 p.o. (dose unit not given)): 0% | Rotarod deficit (%) (mice; 400 p.o. (dose unit not given)): 0%

CN1CCN(c2cc(Cl)cc3c2C(=O)C(C)(c2ccc([N+](=O)[O-])cc2)C(=O)N3Cc2ccccc2)CC1 (centres unmarked) [Example 3, 1-Benzyl-7-chloro-3-methyl-5-(4-methyl-piperazin-1-yl)-3-(4-nitro-phenyl)-1H-quinolin-2,4-dione]
IC50 (5-HT1a): 5730 nM | IC50 (hD2L): > 10000 nM | IC50 (5-HT7): 4570 nM | IC50 (D1): 814 nM | IC50 (5-HT2c): > 10000 nM | melting point: 179 to 180 °C | IC50 (hD3): 360 nM | IC50 (5-HT2a): 1540 nM | IC50 (hD4.2 receptor): > 10000 nM | IC50 [1, 2]: 4.7 nM | IC50 [1, 3]: 4.7 nM | TD50 at 120 min (Rotarod deficit in mice): > 400 mg/kg | Rotarod deficit (%) (mice; 200 p.o. (dose unit not given)): 0% | Rotarod deficit (%) (mice; 300 p.o. (dose unit not given)): 0% | Rotarod deficit (%) (mice; 400 p.o. (dose unit not given)): 0%

CC1(c2ccc(O)cc2)C(=O)c2c(N3CCNCC3)cc(Cl)cc2N(Cc2cccc(O)c2)C1=O (centres unmarked) [Example 28, 7-Chloro-1-(3-hydroxy-benzyl)-3-(4-hydroxy-phenyl)-3-methyl-5-piperazin-1-yl-1H-quinoline-2,4-dione]
IC50 (5-HT1a): > 10000 nM | IC50 (hD2L): > 10000 nM | IC50 (5-HT7): > 10000 nM | IC50 (D1): > 10000 nM | IC50 (5-HT2c): > 10000 nM | melting point: 229 to 230 °C | IC50 (hD3): > 1000 nM | IC50 (5-HT2a): > 10000 nM | IC50 (hD4.2 receptor): > 10000 nM | IC50 [1, 2]: 3 nM | IC50 [1, 3]: 3 nM | TD50 at 120 min (Rotarod deficit in mice): > 400 mg/kg | Rotarod deficit (%) (mice; 200 p.o. (dose unit not given)): 0% | Rotarod deficit (%) (mice; 300 p.o. (dose unit not given)): 0% | Rotarod deficit (%) (mice; 400 p.o. (dose unit not given)): 0%

CN1CCN(c2cc(Cl)cc3c2C(=O)C(C)(c2ccccc2)C(=O)N3Cc2ccccc2)CC1 (centres unmarked) [Example 11, 1-Benzyl-7-chloro-3-methyl-5-(4-methyl-piperazin-1-yl)-3-phenyl-1H-quinoline-2,4-dione]
IC50 (5-HT1a): 2590 nM | IC50 (hD2L): 844 nM | IC50 (5-HT7): 2200 nM | IC50 (D1): 4670 nM | IC50 (5-HT2c): 514 nM | melting point: 138 to 140 °C | IC50 (hD3): 678 nM | IC50 (5-HT2a): 1230 nM | IC50 (hD4.2 receptor): > 10000 nM | IC50 [1, 2]: 1.4 nM | IC50 [1, 3]: 1.4 nM | binding affinity at 5-HT6 receptor labeled by [3H]LSD, in words [1]: significant affinities | TD50 at 120 min (Rotarod deficit in mice): > 400 mg/kg | Rotarod deficit (%) (mice; 200 p.o. (dose unit not given)): 0% | Rotarod deficit (%) (mice; 300 p.o. (dose unit not given)): 0% | Rotarod deficit (%) (mice; 400 p.o. (dose unit not given)): 0%
